Results published in US20070259897A1, “Fungicidal Mixtures” (BASF Aktiengesellschaft, priority 2004, published 2007).

Tested on: Cochliobolus miyabeanus
Experiment: Activity against brown spot of rice caused by Cochliobolus miyabeanus, protective application
Assay type: in vivo
Settings: individual active compound, evaluated after 6 days
Protocol: The active compounds, separately or jointly, were prepared as a stock solution comprising 0.25% by weight of active compound in acetone or DMSO. 1% by weight of the emulsifier Uniperol® EL (wetting agent having emulsifying and dispersing action based on ethoxylated alkylphenols) was added to this solution, and the mixture was appropriately diluted with water to the desired concentration.
Use example—Activity against brown spot of rice caused by Cochliobolus miyabeanus, protective application Leaves of rice seedlings of the cultivar “Tai-Nong 67” which had been grown in pots were sprayed to runoff point with an aqueous suspension having the concentration of active compound stated below. The next day, the plants were inoculated with an aqueous spore suspension of Cochliobolus miyabeanus. The test plants were then placed in climatized chambers at 22-24° C. and 95-99% relative atmospheric humidity for 6 days. The extent of the development of infection on the leaves was then determined visually.
The visually determined values for the percentage of infected leaf area were converted into efficacies as a % of the untreated control:
The efficacy (E) is calculated as follows using Abbot's formula: E=(1−α/β)·100 α corresponds to the fungal infection of the treated plants in % and β corresponds to the fungal infection of the untreated (control) plants in % An efficacy of 0 means that the infection level of the treated plants corresponds to that of the untreated control plants; an efficacy of 100 means that the treated plants are not infected.
The expected efficacies of the mixtures of active compounds were determined using Colby's formula [R. S. Colby, “Calculating synergistic and antagonistic responses of herbicide combinations”, Weeds, 15, 20-22 (1967)] and are compared with the observed efficacies.
Colby's formula: E=x+y−x·y/100
E expected efficacy, expressed in % of the untreated control, when using the mixture of the active compounds A and B at the concentrations a and b x efficacy, expressed in % of the untreated control, when using active compound A at the concentration a y efficacy, expressed in % of the untreated control, when using active compound B at the concentration b

Row | SMILES | Efficacy in % of the untreated control (3.1 ppm in the spray liquor) [%] | Efficacy in % of the untreated control (6.25 ppm in the spray liquor) [%] | Efficacy in % of the untreated control (12.4 ppm in the spray liquor) [%]
1 | CC1CCN(c2c(-c3c(F)cc(F)cc3F)c(Cl)nc3ncnn23)CC1 [I, 5-chloro-7-(4-methylpiperidin-1-yl)-6-(2,4,6-trifluorophenyl)[1,2,4]tri-azolo[1,5-a]pyrimidine] | 22 | 56 | 
2 | CC12CC1(C)C(=O)N(c1cc(Cl)cc(Cl)c1)C2=O (stereo not shown) [II (procymidone), 3-(3,5-dichlorophenyl)-1,5-dimethyl-3-aza-bicyclo[3.1.0]hexane-2,4-dione] |  | 22 | 44
